# From US20220002728A1, “METHOD FOR PREVENTING OXIDATION OF POLYPHENOL BY MEANS OF APTAMER, MATERIAL THEREOF, AND USE THEREOF” (Nexmos Co., LTD, priority 2018, published 2022)
# Experiment: WST-1 assay of EGCG oxidation delay by aptamer
# Type: physicochemical
# Conditions: for comparison of EGCG oxidation delay effect of aptamer K4 and aptamer K5: 20 μM aptamer, 500 μM EGCG, 30 minutes, WST-1 assay (FIG. 5); for concentration dependence of EGCG oxidation delay (reduction of WST-1 delayed): 5, 10 and 20 uM aptamer with EGCG, WST-1 assay (FIGS. 3 and 4); for oxidation of EGCG delayed: at 20 uM aptamer, 500 mM EGCG (so in the source), room temperature 30 minutes, WST-1, 440 nm absorbance measured for 16 hours (FIG. 3, FIG. 4)
# Description: FIG. 1 is a graph showing the effect of delaying EGCG oxidation in aptamer K1 (SEQ ID NO: 1) to K9 (SEQ ID NO: 9) of the present invention. Nine types of aptamer K from aptamer K1 to aptamer K9 that bind to EGCG were prepared in the same manner as described above. After 20 μM aptamer K1 to K9 and 500 μM EGCG were reacted for 30 minutes, respectively, WST-1 assay was performed. The degree of delaying EGCG oxidation of each aptamer K was compared,
# The aptamer (aptamers of SEQ ID NOs: 1 to 9) of the present invention reacting specifically with the EGCG obtained through the SELEX was dissolved in a folding buffer (1 mM MgCl2 in PBS) and then dissolved at 95° C.
# After reacting 500 uM EGCG and one of the prepared 20 μM aptamers K1 to K9 and for 30 minutes, WST-1 assay was performed. The degree of EGCG oxidation delay of each aptamer K was compared.
# 500 mM EGCG and 5, 10, and 20 uM of the prepared aptamer K4 were reacted at room temperature for 30 minutes, respectively, and then WST-1 assay was performed. Prepared sample and WST-1([…]) was reacted to measure the formazan produced and with the plate reader, 440 nm absorbance was measured for 16 hours.
# The aptamer K5 (aptamer of SEQ ID NO: 5) that specifically reacts with EGCG obtained through the SELEX was prepared in the same manner as described above and was tested for the effect of delaying EGCG oxidation.
# Aptamers K4 and K5 binding to the EGCG were prepared in the same manner as described above. 20 μM aptamer K4, or aptamer K5, and 500 μM EGCG were reacted for 30 minutes, respectively, followed by WST-1 assay. It was confirmed that the EGCG oxidation delay effect of 20 μM aptamer K4 and aptamer K5 was similar (FIG. 5).
Substance,comparison of EGCG oxidation delay effect of aptamer K4 and aptamer K5,concentration dependence of EGCG oxidation delay (reduction of WST-1 delayed),oxidation of EGCG delayed,concentration dependence of EGCG oxidation delay (reduction of WST-1 delayed) (listed as 1(5))
"aptamer K4: DNA aptamer binding EGCG, 30 mer: CGACGACAGGAGGTGCGGCCCCGGCAGACC (DNA, backbone and methylation of C not given here)",similar,delayed (about 33% at 20 uM) depending on the concentration,about 33%,–
"aptamer K5: DNA aptamer binding EGCG, 29 mer: ACGCATGCCGGGCGCGCTCCCTGTCGTCC (DNA, backbone and methylation of C not given here)",similar,delayed (about 33% at 20 uM) depending on the concentration,about 33%,delayed depending on the concentration
